The text below walks through data of article PMC11383830, “TTK inhibitor OSU13 promotes immunotherapy responses by activating tumor STING” (JCI Insight, 2024).

The assay concerns the target T1, LRRK2 (Homo sapiens, UniProt Q5S007).
T1 construct: LRRK2-NanoLuc fusion
Kind of assay: NanoBRET in-cell target engagement, competitive displacement of K-9 tracer in transfected HEK293 cells. The format is cell-based.

T1 sequence (Q5S007 whole entry, the tested form may be a part): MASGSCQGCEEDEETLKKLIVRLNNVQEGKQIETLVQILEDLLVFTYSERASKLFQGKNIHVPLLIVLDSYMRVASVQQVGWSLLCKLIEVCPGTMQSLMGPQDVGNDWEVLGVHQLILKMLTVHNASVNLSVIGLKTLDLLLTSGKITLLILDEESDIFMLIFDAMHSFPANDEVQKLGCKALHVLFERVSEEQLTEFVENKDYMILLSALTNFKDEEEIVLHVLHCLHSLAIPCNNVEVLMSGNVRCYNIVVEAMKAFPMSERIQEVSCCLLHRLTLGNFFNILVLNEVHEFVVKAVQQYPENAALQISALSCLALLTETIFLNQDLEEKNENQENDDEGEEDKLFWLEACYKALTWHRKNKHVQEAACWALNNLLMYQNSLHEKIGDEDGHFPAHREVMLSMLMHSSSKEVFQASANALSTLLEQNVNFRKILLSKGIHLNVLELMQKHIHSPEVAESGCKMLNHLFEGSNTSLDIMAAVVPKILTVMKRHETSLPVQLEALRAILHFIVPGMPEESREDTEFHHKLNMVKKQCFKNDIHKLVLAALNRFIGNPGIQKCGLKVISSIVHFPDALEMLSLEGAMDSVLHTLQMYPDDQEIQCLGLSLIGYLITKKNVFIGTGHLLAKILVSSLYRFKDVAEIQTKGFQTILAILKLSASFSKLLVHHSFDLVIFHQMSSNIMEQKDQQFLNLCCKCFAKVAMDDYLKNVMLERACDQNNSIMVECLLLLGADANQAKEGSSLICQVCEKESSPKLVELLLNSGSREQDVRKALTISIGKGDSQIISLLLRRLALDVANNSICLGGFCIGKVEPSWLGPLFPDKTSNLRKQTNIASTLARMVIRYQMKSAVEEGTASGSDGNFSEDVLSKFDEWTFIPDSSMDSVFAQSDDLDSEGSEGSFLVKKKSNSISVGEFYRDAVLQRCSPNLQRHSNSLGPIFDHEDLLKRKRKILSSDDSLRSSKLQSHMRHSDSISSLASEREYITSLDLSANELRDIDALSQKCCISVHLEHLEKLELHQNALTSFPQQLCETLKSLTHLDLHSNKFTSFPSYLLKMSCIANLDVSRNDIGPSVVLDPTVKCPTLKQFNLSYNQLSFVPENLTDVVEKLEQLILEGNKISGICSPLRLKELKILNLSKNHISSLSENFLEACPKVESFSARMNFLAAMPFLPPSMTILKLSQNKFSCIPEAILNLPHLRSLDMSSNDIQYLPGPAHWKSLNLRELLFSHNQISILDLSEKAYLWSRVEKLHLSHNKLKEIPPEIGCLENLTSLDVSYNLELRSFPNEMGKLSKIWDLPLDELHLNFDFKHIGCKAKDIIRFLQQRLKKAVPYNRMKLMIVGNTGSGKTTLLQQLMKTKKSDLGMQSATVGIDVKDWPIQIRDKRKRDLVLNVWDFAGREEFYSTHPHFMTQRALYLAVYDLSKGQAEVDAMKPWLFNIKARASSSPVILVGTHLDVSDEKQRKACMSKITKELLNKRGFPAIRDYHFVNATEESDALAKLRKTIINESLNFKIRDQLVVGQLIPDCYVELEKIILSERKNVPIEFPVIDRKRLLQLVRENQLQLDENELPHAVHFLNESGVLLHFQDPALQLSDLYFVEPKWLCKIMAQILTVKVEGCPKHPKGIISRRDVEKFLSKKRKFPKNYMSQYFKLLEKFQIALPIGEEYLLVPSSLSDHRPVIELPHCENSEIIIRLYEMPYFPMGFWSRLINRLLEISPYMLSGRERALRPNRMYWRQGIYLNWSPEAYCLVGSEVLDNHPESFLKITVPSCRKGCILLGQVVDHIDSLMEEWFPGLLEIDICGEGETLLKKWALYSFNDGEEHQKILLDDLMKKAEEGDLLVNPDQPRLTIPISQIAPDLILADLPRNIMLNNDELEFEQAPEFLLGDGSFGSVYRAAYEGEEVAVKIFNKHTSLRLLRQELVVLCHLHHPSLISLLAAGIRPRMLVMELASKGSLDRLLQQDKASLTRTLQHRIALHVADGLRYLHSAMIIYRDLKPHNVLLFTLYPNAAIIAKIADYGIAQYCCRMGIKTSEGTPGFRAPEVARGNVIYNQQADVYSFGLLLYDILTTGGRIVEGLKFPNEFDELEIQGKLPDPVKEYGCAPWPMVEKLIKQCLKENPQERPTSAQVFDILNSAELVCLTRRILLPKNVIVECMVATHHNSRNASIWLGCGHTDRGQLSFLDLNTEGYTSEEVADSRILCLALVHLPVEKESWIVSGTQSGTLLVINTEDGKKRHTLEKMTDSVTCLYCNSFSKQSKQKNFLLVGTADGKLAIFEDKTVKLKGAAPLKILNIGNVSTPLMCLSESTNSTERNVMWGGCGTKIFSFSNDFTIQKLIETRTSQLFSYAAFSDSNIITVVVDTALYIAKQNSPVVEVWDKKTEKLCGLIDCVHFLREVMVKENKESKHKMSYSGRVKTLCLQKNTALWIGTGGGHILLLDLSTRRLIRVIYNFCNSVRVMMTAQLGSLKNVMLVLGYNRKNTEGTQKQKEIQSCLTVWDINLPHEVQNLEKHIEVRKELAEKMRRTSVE

Turning to OSU13, a half-maximal effect (EC50) was put at 216 nM.
